# Assay results reported in the supplement of paper PMC10702517.
# ± gives the standard deviation.
# Experiment: chemical recovery from spiked human plasma; higher = better extraction
# Settings: pooled human plasma
# [1] = extraction method: PES+SPE (3 d PDMS equilibration then HLB SPE)
# [2] = extraction method: SPE only (HLB 96-well)
# [3] = extraction method: solvent precipitation (ACN + hexane)
# [4] = extraction method: SPE only (HLB 96-well), PES comparison experiment
SMILES,chemical recovery [1] [%],chemical recovery [2] [%],chemical recovery [3] [%],chemical recovery [4] [%]
CC(C)N1C(=O)c2ccccc2N(C)S1(=O)=O [Bentazone-methyl],53.5 ± 11,28.9 ± 1.5,46.3 ± 5.3,
c1ccc2[nH]cnc2c1 [Benzimidazole],16.9 ± 4.1,4.01 ± 3.3,72 ± 2.6,
"c1ccc2c(c1)ccc1sc3ccccc3c12 [Benzo[b]naphtho(1,2-d)thiophene]",,0.745 ± 0.2,20.4 ± 2.6,
"c1ccc2cc3c(cc2c1)sc1ccccc13 [Benzo[b]naphtho(2,3-d)thiophene]",61.7 ± 20,0.871 ± 0.26,63.3 ± 6.8,
O=C(OCc1ccccc1)c1ccccc1O [Benzyl salicylate],,1.14 ± 0.085,26.5 ± 2.6,
c1ccc(COc2ccc3ccccc3c2)cc1 [Benzyl-2-naphthylether],,0.473 ± 0.12,24.2 ± 0.93,
CCCCCCCCCC[N+](C)(C)Cc1ccccc1 [Benzyldimethyldecylammonium],,,66.1 ± 3.3,
CCCCCCCCCCCCCCCC[N+](C)(C)Cc1ccccc1 [Benzyldimethylhexadecylammonium],,,63.9 ± 7.4,
C[N+](C)(C)Cc1ccccc1 [Benzyltrimethylammonium],,3.88 ± 2.8,75.8 ± 2.6,
Cc1c(COC(=O)C2C(/C=C(\Cl)C(F)(F)F)C2(C)C)cccc1-c1ccccc1 (stereo unspecified) [Bifenthrin],,0.536 ± 0.24,18.9 ± 3.9,
CCCCC(CC)COP(=O)(O)OCC(CC)CCCC (stereo unspecified) [Bis(2-ethylhexyl)phosphate],16.4 ± 4.5,20.3 ± 2.5,52.8 ± 4.3,3.88 ± 1.6
CCCCCC(CCC)COC(=O)c1ccccc1C(=O)OCC(CCC)CCCCC (stereo unspecified) [Bis(2-propylheptyl)-phthalate],,,70.9 ± 7.4,
CC1CC(CC2CCC(N)C(C)C2)CCC1N (stereo unspecified) [Bis(4-amino-3-methylcyclohexyl)methane],,,41.1 ± 7.7,
Oc1ccc(C(c2ccc(O)cc2)(C(F)(F)F)C(F)(F)F)cc1 [Bisphenol-AF],86.8 ± 4.4,51.2 ± 7.6,41.6 ± 2.4,
CC(C)(c1ccc(O)cc1)c1ccc(O)cc1 [Bisphenol-A],69.8 ± 4.4,45.4 ± 3.8,,
Oc1ccc(C(c2ccccc2)(c2ccccc2)c2ccc(O)cc2)cc1 [Bisphenol-BP],,40.9 ± 7.5,35.1 ± 3.6,
CCC(C)(c1ccc(O)cc1)c1ccc(O)cc1 [Bisphenol-B],63.4 ± 2,45.4 ± 1.4,49.7 ± 3.2,
Cc1cc(C(C)(C)c2ccc(O)c(C)c2)ccc1O [Bisphenol-C],52.7 ± 2.9,34.5 ± 4.8,39.4 ± 2.5,
CC(c1ccc(O)cc1)c1ccc(O)cc1 [Bisphenol-E],62.3 ± 2.5,51 ± 4,63.7 ± 3.1,
Oc1ccc(C2(c3ccc(O)cc3)c3ccccc3-c3ccccc32)cc1 [Bisphenol-FL],,34.3 ± 5.9,26.8 ± 4.5,
Oc1ccc(Cc2ccc(O)cc2)cc1 [Bisphenol-F],70.2 ± 3.4,56 ± 2.6,72.6 ± 3.6,
CC(C)c1cc(C(C)(C)c2ccc(O)c(C(C)C)c2)ccc1O [Bisphenol-G],,8.379 ± 0.058,39.5 ± 3.7,
CC(C)(c1ccc(O)c(-c2ccccc2)c1)c1ccc(O)c(-c2ccccc2)c1 [Bisphenol-PH],64.8 ± 12,26.7 ± 7,38 ± 5,
CCC(C)n1c(=O)[nH]c(C)c(Br)c1=O (stereo unspecified) [Bromacil],64.5 ± 4.7,49.3 ± 3,72.7 ± 2.8,
CC(NC(C)(C)C)C(=O)c1cccc(Cl)c1 (stereo unspecified) [Bupropion],0.191 ± 0.047,37.7 ± 3.8,23.5 ± 3.1,38.7 ± 8.2
CNC(=O)ON=C(C)C(C)SC (stereo unspecified) [Butocarboxim],,,,46.4 ± 8.7
Oc1ccc2c(c1)[C@@]13CCCC[C@@]1(O)[C@@H](C2)N(CC1CCC1)CC3 [Butorphanol],,34.7 ± 9.8,65.5 ± 6.6,
CCCCOC(=O)c1ccc(O)cc1 [Butylparaben],51.3 ± 3.1,37.5 ± 1.3,64.9 ± 1.9,
